From US12447150B2, “Treatment of cancer by combination of immune checkpoint inhibitor and folfirinox therapy” (ONO PHARMACEUTICAL CO., LTD., priority 2018, dated 2025) come the findings set out here.

The assay relates to distant metastatic pancreatic cancer. Put plainly: Multicenter, open-label study of Nivolumab in combination with mFFX therapy; anti-tumor effect by CT/MRI according to RECIST guideline version 1.1. Format: in vivo, patients. The following applies: 16 weeks after start of administration, central judgment. How it is done:
The purpose of this clinical trial is to evaluate the efficacy and safety in combination of Nivolumab and mFFX therapy for patients with distant metastatic pancreatic cancer, having no history of chemotherapy. The clinical trial can evaluate the combined effect of Nivolumab and mFFX therapy.
Patients with distant metastatic pancreatic cancer, having no history of chemotherapy
Nivolumab was intravenously administered at 480 mg every 4 weeks over 30 minutes, and Nivolumab was continuously administered until falling into the prescribed criterion for discontinuing the administration of Nivolumab. No change in dose of Nivolumab is allowed. When Nivolumab and mFFX therapy were administered on the same day, Nivolumab was administered initially, and at least 30 minutes after the end of Nivolumab administration, mFFX therapy started.
Oxaliplatin was intravenously administered at 85 mg/m^2 over 2 hours, and then levofolinate was intravenously administered at 200 mg/m^2 over 2 hours. 30 minutes after the start of levofolinate administration, irinotecan was intravenously administered at 150 mg/m^2 over 1.5 hours. Further, after completion of levofolinate administration, fluorouracil was intravenously administered at 2400 mg/m^2 over 46 hours. This was set as one cycle and repeated every 2 weeks.
The anti-tumor effect was evaluated by image diagnosis using CT/magnetic resonance imaging (MRI) on chest, abdomen and pelvis, and measuring the tumor diameter in target lesion according to RECIST guideline version 1.1. The diagnosis imaging (measurement of tumor diameter and judgement of anti-tumor effect) was conducted at the following time points. […]
6 months after the first subject was enrolled, for 7 subjects in which the image diagnosis twice every 8 weeks as defined in the clinical trial protocol was completed (16 weeks after the start of administration of the drug), the effectiveness was evaluated (central judgment).

The mark [1] stands for this setting: Nivolumab 480 mg i.v. every 4 weeks in combination with mFFX therapy, 7 subjects evaluated.

For Nivolumab, the response rate (Nivolumab 480 mg i.v. every 4 weeks in combination with mFFX therapy every 2 weeks, 7 subjects with distant metastatic pancreatic cancer, no history of chemotherapy) amounted to 42.9%. Also, under setting [1], the “CR (number of cases)” value came to 0 cases and the “PR (number of cases)” value is recorded as 3 cases.
